# Source: patent publication US20230106592A1, “METHOD FOR TREATING CANCER USING A COMBINATION OF DNA DAMAGING AGENTS AND ATR INHIBITORS” (Vertex Pharmaceuticals Incorporated, priority 2015, published 2023)
# Experiment: Phase I trial, combination with carboplatin: adverse events and DLTs
# Format: in vivo, human
# Experimental: Pts with advanced solid tumors enrolled in 2 sequential parts.
# In part A, single pt cohorts received a compound of Formula A-2 once weekly in 21-day cycles with 3+3 dose escalation cohorts being implemented if grade 2 drug-related adverse events (AEs) occurred. […] If a DLT was reported, the cohort was expanded to include 3 additional pts with subsequent dose escalation being permitted if no further DLTs occurred. Paired pre- and post-treatment biopsies from selected pts in part B were assessed for pCHK1 levels by immunohistochemistry. Models based on preclinical and clinical data were used to simulate hematologic toxicities and pCHK1 inhibition for pts treated with a compound of Formula A-2 and CP.
# [1] = A-2 90 mg/m2 + Carboplatin AUC 5 (n = 3)
# [2] = A-2 90 mg/m^2 + Carboplatin AUC5 (N = 6)
# [3] = A-2 120 mg/m2 + Carboplatin AUC 4 (n = 3)
# [4] = A-2 120 mg/m2 + Carboplatin AUC 5 (n = 3)
# [5] = A-2 120 mg/m^2 + Carboplatin AUC4 (N = 3)
smiles,measurement,setting,value
CNCc1ccc(-c2cc(-c3nc(-c4ccc(S(=O)(=O)C(C)C)cc4)cnc3N)on2)cc1 [Compound A-2],"Treatment related adverse event: Alopecia, All Grades",[1],2 (20.0) n (%)
same,"Treatment related adverse event: Alopecia, Grade ≥ 3",[1],0 n (%)
same,"Treatment related adverse event: Anemia, All Grades",[1],4 (40.0) n (%)
same,"Treatment related adverse event: Anemia, Grade ≥ 3",[1],0 n (%)
same,"Treatment related adverse event: Any Event, All Grades",[1],9 (90.0) n (%)
same,"Treatment related adverse event: Any Event, Grade ≥ 3",[1],1 (10.0) n (%)
same,"Treatment related adverse event: Fatigue, All Grades",[1],4 (40.0) n (%)
same,"Treatment related adverse event: Fatigue, Grade ≥ 3",[1],0 n (%)
same,"Treatment related adverse event: Flushing, All Grades",[1],1 (10.0) n (%)
same,"Treatment related adverse event: Flushing, Grade ≥ 3",[1],0 n (%)
same,"Treatment related adverse event: Headache, All Grades",[1],0 n (%)
same,"Treatment related adverse event: Headache, Grade ≥ 3",[1],0 n (%)
same,"Treatment related adverse event: Hypersensitivity, All Grades",[1],0 n (%)
same,"Treatment related adverse event: Hypersensitivity, Grade ≥ 3",[1],0 n (%)
same,"Treatment related adverse event: Infusion related reaction, All Grades",[1],1 (10.0) n (%)
same,"Treatment related adverse event: Infusion related reaction, Grade ≥ 3",[1],0 n (%)
same,"Treatment related adverse event: Nausea, All Grades",[1],3 (30.0) n (%)
same,"Treatment related adverse event: Nausea, Grade ≥ 3",[1],0 n (%)
same,"Treatment related adverse event: Neuropathy peripheral, All Grades",[1],0 n (%)
same,"Treatment related adverse event: Neuropathy peripheral, Grade ≥ 3",[1],0 n (%)
same,"Treatment related adverse event: Neutropenia, All Grades",[1],3 (30.0) n (%)
same,"Treatment related adverse event: Neutropenia, Grade ≥ 3",[1],1 (10.0) n (%)
same,"Treatment related adverse event: Pruritus, All Grades",[1],1 (10.0) n (%)
same,"Treatment related adverse event: Pruritus, Grade ≥ 3",[1],0 n (%)
same,"Treatment related adverse event: Thrombocytopenia, All Grades",[1],2 (20.0) n (%)
same,"Treatment related adverse event: Thrombocytopenia, Grade ≥ 3",[1],0 n (%)
same,"Treatment related adverse event: Vomiting, All Grades",[1],0 n (%)
same,"Treatment related adverse event: Vomiting, Grade ≥ 3",[1],0 n (%)
same,"Treatment related adverse event: Alopecia, All",[2],2
same,"Treatment related adverse event: Alopecia, ≥3",[2],0
same,"Treatment related adverse event: Anemia, All",[2],3
same,"Treatment related adverse event: Anemia, ≥3",[2],0
same,"Treatment related adverse event: Fatigue, All",[2],3
same,"Treatment related adverse event: Fatigue, ≥3",[2],0
same,"Treatment related adverse event: Flushing, All",[2],0
same,"Treatment related adverse event: Flushing, ≥3",[2],0
same,"Treatment related adverse event: Headache, All",[2],0
same,"Treatment related adverse event: Headache, ≥3",[2],0
same,"Treatment related adverse event: Hypertension, All",[2],0
same,"Treatment related adverse event: Hypertension, ≥3",[2],0
same,"Treatment related adverse event: Nausea, All",[2],1
same,"Treatment related adverse event: Nausea, ≥3",[2],0
same,"Treatment related adverse event: Neuropathy peripheral, All",[2],0
same,"Treatment related adverse event: Neuropathy peripheral, ≥3",[2],0
same,"Treatment related adverse event: Neutropenia, All",[2],2
same,"Treatment related adverse event: Neutropenia, ≥3",[2],1
same,"Treatment related adverse event: Respiratory tract infection, ≥3",[2],0
same,"Treatment related adverse event: Thrombocytopenia, All",[2],2
same,"Treatment related adverse event: Thrombocytopenia, ≥3",[2],0
same,"Treatment related adverse event: Vomiting, All",[2],0
same,"Treatment related adverse event: Vomiting, ≥3",[2],0
same,"Treatment related adverse event: Alopecia, All Grades",[3],0 n (%)
same,"Treatment related adverse event: Alopecia, Grade ≥ 3",[3],0 n (%)
same,"Treatment related adverse event: Anemia, All Grades",[3],1 (33.3) n (%)
same,"Treatment related adverse event: Anemia, Grade ≥ 3",[3],0 n (%)
same,"Treatment related adverse event: Any Event, Grade ≥ 3",[3],0 n (%)
same,"Treatment related adverse event: Fatigue, All Grades",[3],0 n (%)
same,"Treatment related adverse event: Fatigue, Grade ≥ 3",[3],0 n (%)
same,"Treatment related adverse event: Flushing, All Grades",[3],1 (33.3) n (%)
same,"Treatment related adverse event: Flushing, Grade ≥ 3",[3],0 n (%)
same,"Treatment related adverse event: Headache, All Grades",[3],0 n (%)
same,"Treatment related adverse event: Headache, Grade ≥ 3",[3],0 n (%)
same,"Treatment related adverse event: Hypersensitivity, All Grades",[3],0 n (%)
same,"Treatment related adverse event: Hypersensitivity, Grade ≥ 3",[3],0 n (%)
same,"Treatment related adverse event: Infusion related reaction, All Grades",[3],0 n (%)
same,"Treatment related adverse event: Infusion related reaction, Grade ≥ 3",[3],0 n (%)
same,"Treatment related adverse event: Nausea, All Grades",[3],1 (33.3) n (%)
same,"Treatment related adverse event: Nausea, Grade ≥ 3",[3],0 n (%)
same,"Treatment related adverse event: Neuropathy peripheral, All Grades",[3],0 n (%)
same,"Treatment related adverse event: Neuropathy peripheral, Grade ≥ 3",[3],0 n (%)
same,"Treatment related adverse event: Neutropenia, All Grades",[3],0 n (%)
same,"Treatment related adverse event: Neutropenia, Grade ≥ 3",[3],0 n (%)
same,"Treatment related adverse event: Pruritus, All Grades",[3],1 (33.3) n (%)
same,"Treatment related adverse event: Pruritus, Grade ≥ 3",[3],0 n (%)
same,"Treatment related adverse event: Thrombocytopenia, All Grades",[3],1 (33.3) n (%)
same,"Treatment related adverse event: Thrombocytopenia, Grade ≥ 3",[3],0 n (%)
same,"Treatment related adverse event: Vomiting, All Grades",[3],0 n (%)
same,"Treatment related adverse event: Vomiting, Grade ≥ 3",[3],0 n (%)
same,"Treatment related adverse event: Alopecia, All Grades",[4],0 n (%)
same,"Treatment related adverse event: Alopecia, Grade ≥ 3",[4],0 n (%)
same,"Treatment related adverse event: Anemia, Grade ≥ 3",[4],0 n (%)
same,"Treatment related adverse event: Any Event, All Grades",[4],3 (100) n (%)
same,"Treatment related adverse event: Fatigue, All Grades",[4],1 (33.3) n (%)
same,"Treatment related adverse event: Fatigue, Grade ≥ 3",[4],0 n (%)
same,"Treatment related adverse event: Flushing, All Grades",[4],0 n (%)
same,"Treatment related adverse event: Flushing, Grade ≥ 3",[4],0 n (%)
same,"Treatment related adverse event: Headache, All Grades",[4],0 n (%)
same,"Treatment related adverse event: Headache, Grade ≥ 3",[4],0 n (%)
same,"Treatment related adverse event: Hypersensitivity, All Grades",[4],1 (33.3) n (%)
same,"Treatment related adverse event: Hypersensitivity, Grade ≥ 3",[4],1 (33.3) n (%)
same,"Treatment related adverse event: Infusion related reaction, All Grades",[4],1 (33.3) n (%)
same,"Treatment related adverse event: Infusion related reaction, Grade ≥ 3",[4],0 n (%)
same,"Treatment related adverse event: Nausea, Grade ≥ 3",[4],0 n (%)
same,"Treatment related adverse event: Neuropathy peripheral, All Grades",[4],0 n (%)
same,"Treatment related adverse event: Neuropathy peripheral, Grade ≥ 3",[4],0 n (%)
same,"Treatment related adverse event: Neutropenia, Grade ≥ 3",[4],1 (33.3) n (%)
same,"Treatment related adverse event: Pruritus, All Grades",[4],0 n (%)
same,"Treatment related adverse event: Pruritus, Grade ≥ 3",[4],0 n (%)
same,"Treatment related adverse event: Thrombocytopenia, All Grades",[4],1 (33.3) n (%)
same,"Treatment related adverse event: Thrombocytopenia, Grade ≥ 3",[4],0 n (%)
same,"Treatment related adverse event: Vomiting, All Grades",[4],0 n (%)
same,"Treatment related adverse event: Vomiting, Grade ≥ 3",[4],0 n (%)
same,"Treatment related adverse event: Alopecia, All",[5],0
same,"Treatment related adverse event: Alopecia, ≥3",[5],0
same,"Treatment related adverse event: Anemia, All",[5],1
same,"Treatment related adverse event: Anemia, ≥3",[5],0
same,"Treatment related adverse event: Fatigue, All",[5],0
same,"Treatment related adverse event: Fatigue, ≥3",[5],0
same,"Treatment related adverse event: Flushing, All",[5],1
same,"Treatment related adverse event: Flushing, ≥3",[5],0
same,"Treatment related adverse event: Headache, All",[5],0
same,"Treatment related adverse event: Headache, ≥3",[5],0
same,"Treatment related adverse event: Hypertension, All",[5],0
same,"Treatment related adverse event: Hypertension, ≥3",[5],0
same,"Treatment related adverse event: Nausea, All",[5],1
same,"Treatment related adverse event: Nausea, ≥3",[5],0
same,"Treatment related adverse event: Neuropathy peripheral, All",[5],0
same,"Treatment related adverse event: Neuropathy peripheral, ≥3",[5],0
same,"Treatment related adverse event: Neutropenia, All",[5],0
same,"Treatment related adverse event: Neutropenia, ≥3",[5],0
same,"Treatment related adverse event: Respiratory tract infection, All",[5],0
same,"Treatment related adverse event: Respiratory tract infection, ≥3",[5],0
same,"Treatment related adverse event: Thrombocytopenia, All",[5],1
same,"Treatment related adverse event: Thrombocytopenia, ≥3",[5],0
